Each structure is given as a SMILES string. Calls of active or inactive are those of the source. The rule behind the calls is not given here.

This assay concerns MRP1 cells, doxorubicin viability shift, 10 uM compound. Put plainly: viability protection against doxorubicin, MRP-1 line – cell-based, doxorubicin EC50 shift, dose response (AID 844). The note with it: for EC50: measured here: doxorubicin EC50 with compound.

In the case of `O=C(NN1C(=O)/C(=C\c2cccnc2)SC1=S)C(c1ccccc1)c1ccccc1`, the fold increase in Dox EC50 was 0.84 (inactive) and the EC50 was found to be 4.56 µM.

As to `O=C(c1ccccc1)C(Sc1ncn[nH]1)c1ccccc1` (centres undefined), the fold increase in Dox EC50 is 0.68 (inactive) and the EC50 was 3.7 µM.

As for `Cc1cc(C)nc(NS(=O)(=O)c2ccc(NC(=O)c3ccc4c(c3)OCO4)cc2)n1`, the fold increase in Dox EC50 was 0.94 (inactive) and the EC50 was determined as 5.05 µM.

On to `CCn1c(C)c(C)c2cc(C(=O)Nc3cccc(Cl)c3)ccc21`, for which the fold increase in Dox EC50 was 0.43 (inactive) and the EC50 worked out at 2.33 µM.

As for `CN=c1scc(C)n1/N=C/c1ccc(O)c(O)c1O`, the fold increase in Dox EC50 was 0.92 (inactive) and the EC50 came out at 4.95 µM.

`CCOC(=O)Cc1csc(NC(=O)c2c(-c3ccccc3)noc2C)n1`: the fold increase in Dox EC50 is 0.44 (inactive) and the EC50 amounted to 2.4 µM.

On to `CN(C)C(=O)Oc1ccc(OC(=O)c2ccccc2)cc1`, for which the fold increase in Dox EC50 is 1.17 (inactive) and the EC50 is 6.32 µM.

Take `CCN(CC)CCN(Cc1cc2cc(C)cc(C)c2[nH]c1=O)C(=S)NCc1ccco1`: the fold increase in Dox EC50 was 0.19 (inactive) and the EC50 worked out at 1.03 µM.

For `C[C@]12C=CC(=O)C=C1CC[C@H]1[C@@H]3C[C@@H](O)[C@](O)(C(=O)CO)[C@@]3(C)C[C@H](O)[C@@]12F`, the fold increase in Dox EC50 was 1.41 (inactive) and the EC50 is 7.62 µM.

As to `COc1ccc(Cc2nnc(N/N=C/c3ccc(O)cc3O)[nH]c2=O)cc1OC`, the fold increase in Dox EC50 was 0.15 (inactive) and the EC50 was 0.836 µM.

Take `CC(C)CNC(=O)c1cccc(NC(=O)Cc2ccc(Br)cc2)c1`: the fold increase in Dox EC50 is 0.92 (inactive) and the EC50 stood at 4.98 µM.

For `O=C(NC(=S)Nc1ccccc1N1CCOCC1)c1ccc(-c2cc(Cl)ccc2Cl)o1`, the fold increase in Dox EC50 was 1 (inactive) and the EC50 turned out to be 5.42 µM.

Regarding `CCOC(=O)c1c(-c2ccc(C)o2)csc1NC(=O)CSc1ncn[nH]1`, the fold increase in Dox EC50 is 0.51 (inactive) and the EC50 is 2.74 µM.

For `CCC1SC2=NC(C)=C(C(=O)OC)C(c3cccs3)N2C1=O` (centres undefined), the fold increase in Dox EC50 was 1.1 (inactive) and the EC50 came to 5.94 µM.

Turning to `O=C(COc1ccc(Br)cc1)N1CCN(C2CCCC2)CC1`, the fold increase in Dox EC50 was 1.08 (inactive) and the EC50 worked out at 5.85 µM.

As for `CCN(Cc1ccccc1)C(=O)CSc1nc(C)cc(C)c1C#N`, the fold increase in Dox EC50 was 0.59 (inactive) and the EC50 was 3.19 µM.

As to `O=C(COc1cccnc1[N+](=O)[O-])Nc1ccc2c(c1)OC(F)(F)O2`, the fold increase in Dox EC50 is 0.7 (inactive) and the EC50 turned out to be 3.8 µM.

Take `CCCCCCCC1CC(CSc2ncn[nH]2)OC1=O` (centres undefined): the fold increase in Dox EC50 is 0.94 (inactive) and the EC50 is 5.08 µM.

In the case of `CCOc1ccc(Cn2nnc(C(=O)NCCc3ccc(Cl)cc3)c2N)cc1`, the fold increase in Dox EC50 is 1.6 and the EC50 was determined as 8.64 µM.

Turning to `COc1ccc(N2Cc3cccc(C(=O)NC(C)CCc4ccco4)c3C2=O)cc1` (centres undefined), the fold increase in Dox EC50 is 0.37 (inactive) and the EC50 was found to be 2.02 µM.

For `O=C(CC1SC(=O)N(Cc2ccccc2)C1=O)Nc1nccs1` (centres undefined), the fold increase in Dox EC50 was 1.82 and the EC50 came out at 9.84 µM.

As to `CCC(Sc1nc2ccccc2o1)C(=O)Nc1nnc(C)s1` (centres undefined), the fold increase in Dox EC50 was 1.34 (inactive) and the EC50 was 7.22 µM.

With `Cc1ccc(NC(=O)CCSc2nnnn2-c2ccc3c(c2)OCO3)cc1C`, the fold increase in Dox EC50 is 0.74 (inactive) and the EC50 was 3.98 µM.

In the case of `Cc1nnc2sc(-c3ccncc3)nn12`, the fold increase in Dox EC50 was 0.8 (inactive) and the EC50 is 4.31 µM.

In the case of `O=C1[C@@H]2[C@H](Cc3ccc(O)cc3)N[C@]3(C(=O)Nc4ccccc43)[C@@H]2C(=O)N1c1ccc(F)cc1`, the fold increase in Dox EC50 was 1.46 (inactive) and the EC50 turned out to be 7.88 µM.

As to `CCOC(=O)c1ccccc1NC(=O)C1COc2ccccc2O1` (centres undefined), the fold increase in Dox EC50 is 0.42 (inactive) and the 50% effective concentration (EC50) was 2.28 µM.

In the case of `C=CCOc1ccc(CNc2ccc(NC(=O)CC(C)C)cc2)cc1OC`, the fold increase in Dox EC50 was 0.82 (inactive) and the EC50 amounted to 4.43 µM.

For `CCOC(=O)c1[nH]c2cc(OC)c(OC)cc2c1N`, the fold increase in Dox EC50 was 0.96 (inactive) and the EC50 came to 5.17 µM.

As for `N#Cc1nc(COc2ccc(Br)cc2)oc1NCCN1CCOCC1`, the fold increase in Dox EC50 was 0.83 (inactive) and the EC50 stood at 4.5 µM.

For `CCOc1ccc(NC(=O)Nc2cc(-c3ccccc3)sc2C(=O)OC)cc1`, the fold increase in Dox EC50 was 0.62 (inactive) and the EC50 amounted to 3.34 µM.

With `CC1CC(C)CN(c2ncnc3c2cnn3-c2ccc(Cl)cc2)C1` (centres undefined), the fold increase in Dox EC50 is 0.35 (inactive) and the EC50 amounted to 1.89 µM.

On to `Cc1nc(NC(=S)NC(=O)c2ccccc2)sc1C(=O)N(C)C`, for which the fold increase in Dox EC50 was 1.24 (inactive) and the concentration giving a half-maximal response (EC50) was 6.71 µM.

As for `CCn1c(C)cc(/C=C2\NC(=O)N(Cc3ccc(Cl)cc3)C2=O)c1C`, the fold increase in Dox EC50 was 1.14 (inactive) and the EC50 was 6.15 µM.

Regarding `Cc1ccc(C)c2[nH]c(=O)c(CN(Cc3ccco3)S(=O)(=O)c3ccc4c(c3)OCCO4)cc12`, the fold increase in Dox EC50 is 0.88 (inactive) and the concentration for a half-maximal effect (EC50) came out at 4.73 µM.

In the case of `COc1ccc(S(=O)(=O)N(CC(=O)N2CCN(c3ccccc3OC)CC2)c2ccccc2)cc1`, the fold increase in Dox EC50 is 0.46 (inactive) and the EC50 is 2.49 µM.

As for `CCn1c(COc2ccc(Cl)cc2)nnc1SC1CCc2ccccc2C1=O` (centres undefined), the fold increase in Dox EC50 was 0.71 (inactive) and the concentration giving a half-maximal response (EC50) was found to be 3.81 µM.

As for `O=C1/C(=C\c2cccs2)N=C(c2cccs2)N1Nc1ccccc1`, the fold increase in Dox EC50 is 0.84 (inactive) and the EC50 came to 4.55 µM.

For `O=C(CCNC(=O)Cn1ccc2ccccc2c1=O)NCCc1ccccc1Cl`, the fold increase in Dox EC50 was 1.14 (inactive) and the EC50 was found to be 6.15 µM.

For `CCc1nnc(NC(=O)c2ccc(-c3ccc(Cl)cc3)o2)s1`, the fold increase in Dox EC50 is 1.19 (inactive) and the EC50 was determined as 6.41 µM.

Turning to `Cc1cc(C)nc(N/N=C/c2cccc3ccccc23)n1`, the fold increase in Dox EC50 was 1 (inactive) and the EC50 is 5.39 µM.

With `O=C(CSc1ncn[nH]1)Nc1nnc(-c2ccccc2)s1`, the fold increase in Dox EC50 was 0.58 (inactive) and the EC50 came out at 3.12 µM.

With `O=C1NC(=Nc2ccccc2)SC1Cc1cccc(Cl)c1Cl` (centres undefined), the fold increase in Dox EC50 is 1.21 (inactive) and the EC50 was 6.54 µM.

As for `Cc1c(NC(=O)c2ccccc2NS(=O)(=O)c2ccc(Br)cc2)c(=O)n(-c2ccccc2)n1C`, the fold increase in Dox EC50 is 0.65 (inactive) and the EC50 came out at 3.53 µM.

For `CCN=c1scc(C)n1/N=C/c1ccc(O)c(O)c1O`, the fold increase in Dox EC50 was 0.18 (inactive) and the EC50 was determined as 0.985 µM.

Turning to `O=C1CC(N2CCC(n3c(=O)[nH]c4ccccc43)CC2)C(=O)N1c1ccc(F)cc1` (centres undefined), the fold increase in Dox EC50 was 1.41 (inactive) and the EC50 worked out at 7.59 µM.

As for `O=C(Nc1cccn(Cc2c(Cl)cccc2Cl)c1=O)c1c(Cl)cccc1Cl`, the fold increase in Dox EC50 is 1.07 (inactive) and the EC50 is 5.79 µM.

For the compound `CCOC(=O)C1=C(C)N=c2s/c(=C\c3ccc(OC(C)=O)cc3)c(=O)n2C1/C=C/c1ccccc1` (centres undefined), the fold increase in Dox EC50 is 0.34 (inactive) and the EC50 was 1.85 µM.

As to `Cc1cc(C)n2nc(C(=O)Nc3nnc(C4CC4)s3)nc2n1`, the fold increase in Dox EC50 was 0.87 (inactive) and the EC50 turned out to be 4.7 µM.

Turning to `CCOc1ccc(OCC)c(-c2c(=O)n(OCc3ccc(C(C)(C)C)cc3)c3ccccc3[n+]2[O-])c1`, the fold increase in Dox EC50 is 0.85 (inactive) and the EC50 turned out to be 4.6 µM.

Regarding `N#CCSc1n[nH]c2nc3c(c(=O)n12)C1(CCCC1)Cc1ccccc1-3`, the fold increase in Dox EC50 was 0.46 (inactive) and the EC50 came out at 2.49 µM.

In the case of `COc1cc(C(c2sc3ncnn3c2O)N2CCN(c3ccccc3F)CC2)cc(OC)c1OC` (centres undefined), the fold increase in Dox EC50 is 0.81 (inactive) and the EC50 stood at 4.37 µM.

In the case of `CCCCC1S/C(=N/N=C/c2ccc(OC)cc2)N(Cc2ccc(OC)cc2)C1=O` (centres undefined), the fold increase in Dox EC50 was 1.18 (inactive) and the concentration for a half-maximal effect (EC50) is 6.34 µM.

Turning to `Cc1cccc(Cc2cnc(NC(=O)CN3C(=O)/C(=C/c4ccccc4)SC3=S)s2)c1`, the fold increase in Dox EC50 was 1.53 and the EC50 amounted to 8.25 µM.

On to `Cc1nc(OCc2ccccc2)c2sc3nc4c(cc3c2n1)COC(C)(C)C4`, for which the fold increase in Dox EC50 was 1.3 (inactive) and the EC50 turned out to be 7.04 µM.

On to `CC1CCc2c(sc3nc(CSc4ncn[nH]4)[nH]c(=O)c23)C1` (centres undefined), for which the fold increase in Dox EC50 was 0.81 (inactive) and the EC50 turned out to be 4.4 µM.

Turning to `CCn1c(COc2ccc(Cl)cc2)nnc1SCc1nc2ccccc2[nH]1`, the fold increase in Dox EC50 is 0.35 (inactive) and the EC50 was found to be 1.87 µM.

Regarding `N#Cc1ccc(N2C(=O)[C@@H]3C(C(=O)c4ccc5ccccc5n4)=NN[C@@H]3C2=O)cc1`, the fold increase in Dox EC50 was 1.3 (inactive) and the EC50 came out at 7 µM.

On to `COc1ccc(/C=C2/N=C(SC3CCOC3=O)N(c3cccc(OC)c3)C2=O)cc1` (centres undefined), for which the fold increase in Dox EC50 was 0.68 (inactive) and the EC50 stood at 3.67 µM.

As to `COc1ccc(NS(=O)(=O)c2cc(NC(=O)CNC(=O)c3ccc(C)s3)ccc2Cl)cc1`, the fold increase in Dox EC50 was 1.44 (inactive) and the EC50 was determined as 7.78 µM.

On to `O=C1C(Cc2cccc([N+](=O)[O-])c2)SC(=Nc2ccccc2)N1c1ccccc1` (centres undefined), for which the fold increase in Dox EC50 is 0.73 (inactive) and the EC50 turned out to be 3.94 µM.

With `N#C/C(=N\Nc1ccccc1)C(=N)N1CCOCC1`, the fold increase in Dox EC50 is 1.15 (inactive) and the EC50 is 6.23 µM.

In the case of `COc1ccc(-c2[nH]ncc2-c2cnn(-c3ccccc3)c2)c(O)c1`, the fold increase in Dox EC50 was 0.27 (inactive) and the EC50 was determined as 1.43 µM.

For orientation: EC50 means the concentration giving half of the maximal effect.

The record behind these values is PubChem BioAssay AID844 (SRMLSC, 2007).
